This is an account of results in US7700788B2, “Hydroxymethyl furfural oxidation methods” (Battelle Memorial Institute, priority 2006, dated 2010).

The nature of the data set: Solubility of FDCA in acetic acid/water mixtures. Type of data set: physicochemical.

As to `O=C(O)c1ccc(C(=O)O)o1` [FDCA], the Solubility came out at 0.086 wt % (0 Vol % HOAc / 100 Vol % H2O, 25° C.); 0.327 wt % (0 Vol % HOAc / 100 Vol % H2O, 70° C.); 0.153 wt % (40 Vol % HOAc / 60 Vol % H2O, 25° C.); 0.779 wt % (40 Vol % HOAc / 60 Vol % H2O, 70° C.); 0.173 wt % (50 Vol % HOAc / 50 Vol % H2O, 25° C.); 0.746 wt % (50 Vol % HOAc / 50 Vol % H2O, 70° C.). Further, the Solubility (60 Vol % HOAc / 40 Vol % H2O, 25° C.) worked out at 0.171 wt %; the Solubility (60 Vol % HOAc / 40 Vol % H2O, 70° C.) came out at 0.596 wt %; the Solubility (70 Vol % HOAc / 30 Vol % H2O, 25° C.) is 0.143 wt %; the Solubility (70 Vol % HOAc / 30 Vol % H2O, 70° C.) came out at 0.592 wt %; the Solubility (90 Vol % HOAc / 10 Vol % H2O, 25° C.) was determined as 0.138 wt %; the Solubility (90 Vol % HOAc / 10 Vol % H2O, 70° C.) came to 0.458 wt %. The Solubility runs as follows: (100 Vol % HOAc / 0 Vol % H2O, 25° C.) 0.080 wt %; (100 Vol % HOAc / 0 Vol % H2O, 70° C.) 0.193 wt %. Further, the “Solubility in 40/60 HOAc/H2O relative to pure water” value (40/60 HOAc/H2O versus pure water) is “about twice the solubility in pure water”.
